Test results reported in PubChem BioAssay (NCI).
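A five-concentration, 48-hour dose response in 96-well plates underlies each endpoint, interpolated linearly between surrounding concentrations. Abbreviation: GI50, concentration required for 50% inhibition of growth. TGI denotes the concentration required for complete inhibition of growth.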

Experiments:
Assay in all cases: NCI-60 cell line screen, 48 h
[1] = system: 786-0 renal
[2] = system: HCT-116 colon
[3] = system: HT29 colon
[4] = system: OVCAR-3 ovarian
[5] = system: SK-MEL-5 melanoma
[6] = system: SNB-19 CNS
[7] = system: SNB-75 CNS
[8] = system: UACC-257 melanoma

| SMILES | TGI [1] [µM] | TGI [2] [µM] | TGI [3] [µM] | TGI [4] [µM] | TGI [5] [µM] | TGI [6] [µM] | TGI [7] [µM] | TGI [8] [µM] | GI50 [1] [µM] | GI50 [2] [µM] | GI50 [3] [µM] | GI50 [4] [µM] | GI50 [5] [µM] | GI50 [6] [µM] | GI50 [7] [µM] | GI50 [8] [µM] |
| --- | --- | --- | --- | --- | --- | --- | --- | --- | --- | --- | --- | --- | --- | --- | --- | --- |
| Nn1c(=O)n(Cc2ccccc2)n(-c2ccccc2)c1=O | > 100 | > 100 | > 100 | > 100 | > 100 | > 100 | > 100 | > 100 | – | – | – | – | – | – | – | – |
| O=C(Cc1ccccc1)NN1C(=O)C(Cl)C1c1cc(Br)ccc1O (stereo not given) | > 100 | > 100 | > 100 | > 100 | > 100 | 47.9 | 34.4 | > 100 | – | – | – | – | – | – | – | – |
| COc1cc(C(C)O)c[n+](CCc2c[nH]c3ccccc23)c1 (stereo not given) | > 100 | > 100 | > 100 | > 100 | > 100 | > 100 | > 100 | > 100 | – | – | – | – | – | – | – | – |
| CCOC(=O)C1=C(C)N(NC(=O)Nc2ccccc2)C(=O)C1=P(c1ccccc1)(c1ccccc1)c1ccccc1 | > 100 | > 100 | > 100 | > 100 | > 100 | > 100 | > 100 | > 100 | – | – | – | – | – | – | – | – |
| C1=CC2SSSC2C1 (stereo not given) | > 100 | > 100 | > 100 | > 100 | > 100 | > 100 | > 100 | > 100 | – | – | – | – | – | – | – | – |
| COC(=O)/C(=N\Nc1nnc(C)n1N)C(C#N)c1ccc(Cl)cc1 (stereo not given) | > 100 | > 100 | > 100 | > 100 | – | > 100 | > 100 | > 100 | – | – | – | – | – | – | – | – |
| CCOC(=O)CC1(C(=O)OCC)c2[nH]c3ccccc3c2CCN1Cc1ccccc1 (stereo not given) | 31.8 | 31.8 | 29.8 | 27.4 | 34.6 | > 100 | 45.8 | 40.5 | – | – | – | – | – | – | – | – |
| O=C1CCN2C(=O)CCN12 | > 100 | > 100 | > 100 | > 100 | – | > 100 | – | > 100 | – | – | – | – | – | – | – | – |
| Cc1ccc(C2=C(c3ccccc3)C(Br)(c3ccc(C)cc3)C(c3ccccc3)=C2c2ccc(C)cc2)cc1 | > 100 | > 100 | – | > 100 | > 100 | > 100 | – | > 100 | – | – | – | – | – | – | – | – |
| COc1cc(C=C2C(=O)NC(=O)NC2=O)cc(OC)c1OC | > 100 | > 100 | > 100 | > 100 | > 100 | > 100 | > 100 | > 100 | – | – | – | – | – | – | – | – |
| Cc1nc(N)sc1C(=O)/C=C\c1ccc2c(c1)OCO2 | > 100 | > 100 | > 100 | > 100 | > 100 | > 100 | > 100 | > 100 | – | – | – | – | – | – | – | – |
| COC(=O)C1=C(C)N(NC(=O)OC(C)(C)C)C(=O)C1=P(c1ccccc1)(c1ccccc1)c1ccccc1 | > 100 | > 100 | > 100 | > 100 | > 100 | > 100 | > 100 | > 100 | – | – | – | – | – | – | – | – |
| Cc1cn(C2CC(O)C(CO)O2)c(=O)n2nnnc12 (stereo not given) | > 100 | > 100 | > 100 | > 100 | > 100 | > 100 | > 100 | > 100 | – | – | – | – | – | – | – | – |
| Cc1cc(Cl)ccc1N=C1NC(=O)C(CC(=O)Nc2ccc([N+](=O)[O-])cc2[N+](=O)[O-])S1 (stereo not given) | > 100 | – | > 100 | 73.8 | 31.1 | 73.2 | 44.2 | 90.3 | – | – | – | – | – | – | – | – |
| CCC[CH2][Sn]1([CH2]CCC)[O]CC(CN2CCCC2)[O]1 (stereo not given) | 28.2 | 30.6 | 30.7 | 25.7 | 33.4 | 44.3 | 40.9 | 29.7 | 14.4 | 16.9 | 11.1 | 13 | 17.9 | 18.7 | 14.4 | 14.3 |
| NCCCCN(CCCN)/[N+]([O-])=N\O | > 100 | > 100 | > 100 | > 100 | > 100 | > 100 | > 100 | > 100 | – | – | – | – | – | – | – | – |
| C[C@@H]1CC(=O)C2CCCC1C2=O (stereo not given in full) | > 100 | > 100 | > 100 | > 100 | > 100 | > 100 | > 100 | > 100 | – | – | – | – | – | – | – | – |
| CC(C)C(Nc1c2ccccc2nc2ccccc12)C(=O)O (stereo not given) | > 100 | > 100 | > 100 | > 100 | – | > 100 | > 100 | > 100 | – | – | – | – | – | – | – | – |
| CCOc1ccccc1NC(=O)CC(C(=O)OC)C(=O)C(=O)OC (stereo not given) | > 100 | > 100 | > 100 | > 100 | > 100 | > 100 | – | > 100 | – | – | – | – | – | – | – | – |
| O=C1C2C3C=C4c5ccccc5N(c5ccccc5)C4(C2C(=O)N1Cc1ccccc1)C1C(=O)N(Cc2ccccc2)C(=O)C31 (stereo not given) | > 100 | > 100 | > 100 | – | – | > 100 | > 100 | > 100 | – | – | – | – | – | – | – | – |
| Cc1ccn2c(c1)nc1nc3ccccc3nc12 | > 100 | – | > 100 | > 100 | > 100 | > 100 | > 100 | > 100 | – | – | – | – | – | – | – | – |
